PMC6893700 (Viruses, 2019)
Where two headings read alike, the source gives them in different places.

Key:
Vero E6 cells [1] = test system: Vero E6 cells
DENV-3-V1043 = test: Plaque reduction inhibition assay, DENV-3 in LLC-MK2 cells; type: cell-based; details: Dengue virus, DENV3
ZIKV strain R116265 = test: Plaque reduction inhibition assay, ZIKV R116265 in Vero E6 cells; type: cell-based; details: Zika virus, Vero C1008
ZIKV strain PLCal_ZV = test: Plaque reduction inhibition assay, ZIKV PLCal_ZV in Vero E6 cells; type: cell-based; details: Zika virus, Vero C1008; plaque reduction, Vero E6 cells; read-out: IC50 PLCal_ZV
ZIKV strain R103451 = test: Plaque reduction inhibition assay, ZIKV R103451 in Vero E6 cells; type: cell-based; details: Zika virus, Vero C1008; plaque reduction, Vero E6 cells; read-out: IC50 R103451
in vitro [2] = details: African green monkey
[3] = biological target: ZIKV full-length E protein (Zika virus, UniProt A0A024B7W1); type: binding; details: ELISA
ZIKV full-length E protein, sequence (A0A024B7W1 291-794): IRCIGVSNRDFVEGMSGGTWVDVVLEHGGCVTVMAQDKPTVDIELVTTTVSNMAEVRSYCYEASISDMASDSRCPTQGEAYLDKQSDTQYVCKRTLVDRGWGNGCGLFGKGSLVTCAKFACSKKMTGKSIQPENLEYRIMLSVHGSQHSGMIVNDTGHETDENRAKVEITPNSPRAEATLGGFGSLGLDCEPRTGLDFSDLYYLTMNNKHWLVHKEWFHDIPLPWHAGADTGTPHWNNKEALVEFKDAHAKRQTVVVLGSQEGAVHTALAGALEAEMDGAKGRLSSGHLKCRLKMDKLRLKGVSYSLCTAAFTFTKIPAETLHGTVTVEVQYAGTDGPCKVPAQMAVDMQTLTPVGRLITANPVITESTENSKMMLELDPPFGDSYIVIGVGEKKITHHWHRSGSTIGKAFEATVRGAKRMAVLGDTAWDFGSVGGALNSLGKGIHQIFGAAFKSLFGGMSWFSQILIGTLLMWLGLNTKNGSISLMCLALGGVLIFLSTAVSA

in vitro [4] = details: rhesus monkey
ZIKV strain PAN2015 = test: Plaque reduction inhibition assay, ZIKV PAN2015 in Vero E6 cells; type: cell-based; details: Zika virus, Vero C1008
[5] = biological target: T1, ZIKV envelope protein domain III (EDIII) protein (Zika virus, UniProt A0A024B7W1); type: binding
T1 construct: E residues 298–409 fused with a C-terminal human Fc; made in house
T1 sequence (A0A024B7W1 588-699): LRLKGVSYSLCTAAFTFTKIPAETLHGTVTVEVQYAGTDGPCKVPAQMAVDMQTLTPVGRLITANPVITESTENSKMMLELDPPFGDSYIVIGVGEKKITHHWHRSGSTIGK

ZIKV strain PAN2016 [6] = test: Plaque reduction inhibition assay, ZIKV PAN2016 in Vero E6 cells; type: cell-based; details: Zika virus, Vero C1008, Vero E6 cells; for IC90: 90% plaque reduction, read-out: IC90 against ZIKV PAN2016 strain; for IC50: plaque reduction, read-out: IC50 PAN2016
DENV-4-PR 06-65-740 = test: Plaque reduction inhibition assay, DENV-4 in LLC-MK2 cells; type: cell-based; details: Dengue virus, DENV4
in vitro [7] = details: African green monkey; remark: listed apart in the source
DENV-1-V1792 = test: Plaque reduction inhibition assay, DENV-1 in LLC-MK2 cells; type: cell-based; details: Dengue virus, DENV1
DENV-2-V594 = test: Plaque reduction inhibition assay, DENV-2 in LLC-MK2 cells; type: cell-based; details: Dengue virus, DENV2
ZIKV strain FLR [8] = test: Plaque reduction inhibition assay, ZIKV FLR in Vero E6 cells; type: cell-based; details: Zika virus, Vero C1008; plaque reduction, Vero E6 cells; read-out: IC50 FLR
Vero E6 cells [9] = test: Combinatorial cytotoxicity of gossypol with other natural products, CCK8; details: Vero E6, (CC50 alone)/(CC50 in the mixture)—1
[10] = test system: ZIKV rhesus macaque strain MR 766; test: Plaque reduction inhibition assay, ZIKV MR 766 in Vero E6 cells; type: cell-based; details: Zika virus, Vero C1008, in Macaca mulatta; plaque reduction, Vero E6 cells; read-out: IC50 MR 766
ZIKV strain IbH 30656 = test: Plaque reduction inhibition assay, ZIKV IbH 30656 in Vero E6 cells; type: cell-based; details: Zika virus, Vero C1008; plaque reduction, Vero E6 cells; read-out: IC50 IbH 30656
[11] = test system: ZIKV mosquito strain MEX 2–81; test: Plaque reduction inhibition assay, ZIKV MEX 2–81 in Vero E6 cells; type: cell-based; details: Zika virus, Vero C1008; plaque reduction, Vero E6 cells; read-out: IC50 MEX 2–81
ZIKV strain PRVABC59 [12] = type: cell-based, Zika virus (ZIKV); details: for Fold of Enhancement (natural product with gossypol) / CI (combination index) of gossypol with the named natural product: ZIKV PRVABC59; for Fold of Enhancement (natural product with gossypol): (IC50 alone)/(IC50 in the mixture)—1; for CI (combination index) of gossypol with the named natural product: CI < 1 synergy; for IC50: Zika virus, Vero C1008, ZIKV PRVABC59, Vero E6, natural product without combination, read-out: IC50 Alone
ZIKV strain PAN2016 [13] = type: cell-based, Zika virus (ZIKV); details: for Fold of Enhancement (natural product with gossypol) / CI (combination index) of gossypol with the named natural product: ZIKV PAN2016; for Fold of Enhancement (natural product with gossypol): (IC50 alone)/(IC50 in the mixture)—1; for CI (combination index) of gossypol with the named natural product: CI < 1 synergy; for IC50: Zika virus, Vero C1008, ZIKV PAN2016, Vero E6, natural product without combination, read-out: IC50 Alone
ZIKV strain FLR [14] = type: cell-based, Zika virus (ZIKV); details: ZIKV FLR; for Fold of Enhancement (natural product with gossypol): (IC50 alone)/(IC50 in the mixture)—1; for CI (combination index) of gossypol with the named natural product: CI < 1 synergy; for IC50: Zika virus, Vero C1008, Vero E6, natural product without combination, read-out: IC50 Alone
ZIKV (PAN2016) = test: Time-of-addition experiment, ZIKV PAN2016 in Vero E6 cells; type: cell-based, Zika virus (ZIKV); details: for inhibition at 30 µM: Zika virus
ZIKV strain PRVABC59 [15] = test: Plaque reduction inhibition assay, ZIKV PRVABC59 in Vero E6 cells; type: cell-based; details: Zika virus, Vero C1008; plaque reduction, Vero E6 cells
[16] = Vero C1008, 1 h, read-out: inhibition of ZIKV infection, step d: cotreatment at 37 °C

## COc1cc(/C=C/C(=O)CC(=O)/C=C/c2ccc(O)c(OC)c2)ccc1O [Curcumin, curcumin]
Vero E6 cells [1]
  cytotoxicity in Vero E6 cells observed under a microscope: no obvious cytotoxicity
DENV-3-V1043
  IC50: 2.09 ± 0.12 µM
ZIKV strain R116265
  IC50: 14 ± 0.15 µM
ZIKV strain PLCal_ZV
  IC50: 10.8 ± 0.73 µM
ZIKV strain R103451
  IC50: 11.2 ± 0.37 µM
In vitro [2]
  CC50 at 3 days: 53.1 ± 1.83 µM
[3]
  binding to ZIKV full-length E protein (in words): much lower binding affinity
In vitro [4]
  CC50 at 3 days: 59.4 ± 1.18 µM
ZIKV strain PAN2015
  IC50: 13.7 ± 0.37 µM
[5]; ELISA
  binding to ZIKV EDIII protein (in words): much lower binding affinity
ZIKV strain PAN2016 [6]
  IC90: ~47.7 µM
  IC50: 13.7 ± 0.72 µM
DENV-4-PR 06-65-740
  IC50: 4.83 ± 0.24 µM
In vitro [7]
  CC50 at 3 days: 52.86 ± 0.52 µM
DENV-1-V1792
  IC50: 9.37 ± 0.47 µM
DENV-2-V594
  IC50: 3.07 ± 0.07 µM
ZIKV strain FLR [8]
  IC50: 16.6 ± 0.34 µM
Vero E6 cells [9]
  Fold of Enhancement of cytotoxicity (natural product with gossypol): 0.28
Vero E6 cells [9]; listed as curcumin
  Fold of Enhancement of cytotoxicity (natural product with gossypol): not enhanced
[10]
  IC50: 11.4 ± 0.29 µM
ZIKV strain IbH 30656
  IC50: 13.6 ± 0.31 µM
[11]
  IC50: 5.62 ± 0.52 µM
ZIKV strain PRVABC59 [12]
  Fold of Enhancement (natural product with gossypol): 5.46
  CI (combination index) of gossypol with the named natural product: 0.30
  IC50: 12.46 ± 0.05 µM
ZIKV strain PAN2016 [13]
  Fold of Enhancement (natural product with gossypol): 2.60
  CI (combination index) of gossypol with the named natural product: 0.52
  IC50: 13.2 ± 0.81 µM
ZIKV strain FLR [14]
  Fold of Enhancement (natural product with gossypol): 2.84
  CI (combination index) of gossypol with the named natural product: 0.49
  IC50: 17.05 ± 0.08 µM
ZIKV (PAN2016); Vero C1008, 1 h, read-out: inhibition of ZIKV infection, step c: cotreatment at 4 °C (attachment)
  inhibition at 30 µM: 75 to 100%
ZIKV (PAN2016); [16]
  inhibition at 30 µM: 75 to 100%
ZIKV (PAN2016); Vero C1008, read-out: inhibition of ZIKV infection, step a: pretreatment of ZIKV
  inhibition at 30 µM: 75 to 100%
ZIKV (PAN2016); cells with ZIKV 4 °C 1 h, then natural product 37 °C 1 h, gossypol 15 µM, curcumin 30 µM, digitonin 7.5 µM, conessine 30 µM
  inhibition of ZIKV infection, step e: penetration (membrane fusion): low to no impact
ZIKV (PAN2016); cells with ZIKV 37 °C 1 h, then natural product 37 °C 1 h, gossypol 15 µM, curcumin 30 µM, digitonin 7.5 µM, conessine 30 µM
  inhibition of ZIKV infection, step f: postentry stage: low to no impact
ZIKV (PAN2016); cells with natural product 37 °C 1 h before ZIKV, gossypol 15 µM, curcumin 30 µM, digitonin 7.5 µM, conessine 30 µM
  inhibition of ZIKV infection, step b: pretreatment of cells: low to no impact
ZIKV strain PRVABC59 [15]
  IC50: 12.8 ± 0.35 µM

## C[C@H]1[C@H]2CC[C@H]3[C@@H]4CC=C5C[C@@H](N(C)C)CC[C@]5(C)[C@H]4CC[C@]23CN1C [Conessine, conessine]
Vero E6 cells [1]
  cytotoxicity in Vero E6 cells observed under a microscope: no obvious cytotoxicity
DENV-3-V1043
  IC50: 7.41 ± 0.04 µM
ZIKV strain R116265
  IC50: 7.18 ± 0.13 µM
ZIKV strain PLCal_ZV
  IC50: 8.11 ± 0.37 µM
ZIKV strain R103451
  IC50: 11.6 ± 0.33 µM
In vitro [2]
  CC50 at 3 days: 314.6 ± 2.32 µM
[3]
  binding to ZIKV full-length E protein (in words): did not bind
In vitro [4]
  CC50 at 3 days: 303 ± 13.4 µM
ZIKV strain PAN2015
  IC50: 7.98 ± 0.29 µM
[5]
  binding to ZIKV EDIII protein (in words): did not bind
ZIKV strain PAN2016 [6]
  IC90: ~31.8 µM
  IC50: 9.75 ± 0.26 µM
DENV-4-PR 06-65-740
  IC50: 7.27 ± 0.31 µM
In vitro [7]
  CC50 at 3 days: 323.71 ± 0.25 µM
DENV-1-V1792
  IC50: 7.09 ± 0.08 µM
DENV-2-V594
  IC50: 6.61 ± 0.6 µM
ZIKV strain FLR [8]
  IC50: 9.65 ± 0.58 µM
Vero E6 cells [9]
  Fold of Enhancement of cytotoxicity (natural product with gossypol): ~5.78
[10]
  IC50: 7.44 ± 0.11 µM
ZIKV strain IbH 30656
  IC50: 10.2 ± 0.41 µM
[11]
  IC50: 10.94 ± 0.06 µM
ZIKV strain PRVABC59 [12]
  Fold of Enhancement (natural product with gossypol): 6.29
  CI (combination index) of gossypol with the named natural product: 0.28
  IC50: 9.4 ± 0.21 µM
ZIKV strain PAN2016 [13]
  Fold of Enhancement (natural product with gossypol): 3.44
  CI (combination index) of gossypol with the named natural product: 0.44
  IC50: 10 ± 0.25 µM
ZIKV strain FLR [14]
  Fold of Enhancement (natural product with gossypol): 1.13
  CI (combination index) of gossypol with the named natural product: 0.85
  IC50: 10.1 ± 0.45 µM
ZIKV (PAN2016); [16]
  inhibition at 30 µM: 80 to 96%
ZIKV (PAN2016); Vero C1008, 1 h, read-out: inhibition of ZIKV infection, step e: penetration (membrane fusion)
  inhibition at 30 µM: 80 to 96%
ZIKV (PAN2016); Vero C1008, 1 h, read-out: inhibition of ZIKV infection, step f: postentry stage
  inhibition at 30 µM: 80 to 96%
ZIKV (PAN2016); cells, ZIKV and natural product 4 °C 1 h, gossypol 15 µM, curcumin 30 µM, digitonin 7.5 µM, conessine 30 µM
  inhibition of ZIKV infection, step c: cotreatment at 4 °C (attachment): very low to no effect
ZIKV (PAN2016); natural product with ZIKV 37 °C 1 h before cells, gossypol 15 µM, curcumin 30 µM, digitonin 7.5 µM, conessine 30 µM
  inhibition of ZIKV infection, step a: pretreatment of ZIKV: very low to no effect
ZIKV strain PRVABC59 [15]
  IC50: 9.08 ± 0.33 µM
